Some results are limits rather than exact numbers.

This note sets out measurements from patent publication US20250368638A1, “BICYCLIC INHIBITORS OF NICOTINAMIDE […], COMPOSITIONS AND USES THEREOF” (President and Fellows of Harvard College, priority 2021, published 2025).

The nature of series [1]: Metabolic stability in pooled human liver microsomes. As to the method: A master solution was prepared according to the following table.
40 μL of 10 mM NADPH solution was added to each well. The final concentrations of NADPH was 1 mM. The mixture was pre-warmed at 37° C. for 5 minutes. The negative control samples were prepared by replacing NADPH solutions with 40 μL of ultra-pure H2O. The negative control was used to exclude the misleading factor that resulted from instability of chemical itself. Samples with NADPH were prepared in duplicate. Negative controls were prepared in singlet.
The reaction was started with the addition of 4 μL of 200 μM control compound or test compound solutions. […] Samples were centrifuged at 3, 220 g for 40 minutes. Aliquot of 90 μL of the supernatant was mixed with 90 μL of ultra-pure H2O and then used for LC-MS/MS analysis.
For metabolite standard samples: 1 μL of 400 μM working solution was added to 89 μL master solution following by adding 400 μL of cold acetonitrile with internal standard (IS) (100 nM alprazolam, 200 nM Imipramine, 200 nM labetalol and 2 μM ketoprofen). Then 10 μL of 10 mM NADPH solution or ultra-pure H2O was added to the mixture. Samples were centrifuged at 3,220 g for 40 minutes to precipitate protein. Aliquots of 90 μL supernatant diluted by 90 μL of water was used for LC-MS/MS analysis.

Another series deals with K562 (ATCC) cells. Briefly: Cellular potency: 1-MNA levels in K562 cells after compound incubation. It counts as cell-based. The conditions noted are these: Homo sapiens, 24 h incubation. As to the method: Cellular potency was measured in K562 (ATCC) cells via measuring (1-methyl nicotinamide) 1-MNA levels after compound incubation at varying concentrations overnight. Cells were plated at 1 million per well and were incubated for 24 h with compounds at indicated concentrations. Cells were collected by pipetting and extracted with 200 ul acetonitrile containing internal deuterated standard 10 ng/ml d4-1-MNA. Samples were analyzed on an Agilent 64-60 Triple Quad LC/MS with Agilent 1290 Infinity HPLC using a Restek Allure 5 um PPFP column 150 mm×2.1. The mobile phase A was 2.5 mM ammonium formate in water, and mobile phase B was methanol with 0.1% formic acid, delivered at 0.25 mL/min. The capillary voltage was set to 2400V and the nozzle at 300V. The drying gas temperature was 240° C., the drying gas flow rate was 4 L/min, and the nebulizer pressure was 40 psi. The mass spectrometer was run in multiple reaction monitoring mode. Mass transitions were m/z 137.1 à 94.1 for 1-MNA and m/z 141.1 à 98.1 for d4-MNA.

Take `C[C@@H]1Cc2cc(C(N)=O)cnc2N1` [Compound 11, (2R)-2-methyl-2,3-dihydro-1H-pyrrolo[2,3-b]pyridine-5-carboxamide]: in series [1] (Human liver microsomes), the “Remaining (%) at 60 minutes” value is 97.33%. In series [1] (human, microsomes), the CLint scaled at 2 μM is below 6.79 mL/min/kg, the half-life at 2 μM was above 4.26 h and the microsomal CLint at 2 μM is below 5.42 µL/min/mg. Moreover, the half-inhibitory concentration (IC50) in the series on K562 (ATCC) cells stood at 38 nM.
